Measured values published in ChEMBL document CHEMBL5325456, “5-(4-Hydroxyphenyl)-3H-1,2-dithiole-3-thione derivatives of brefeldin A: Design, synthesis and cytotoxicity in MDA-MB-231 human breast cancer cells” (Bioorg Med Chem, 2023).
pIC50: −log10 of the molar value. Calls of active or inactive are those of the source. The calls are words filed in the database; no cut-off is given here.

Legend:
MDA-MB-231 [1] = assay: Induction of apoptosis in human MDA-MB-231 cells assessed as early apoptotic cells at 0.33 uM incubated for 48 hrs by Annexin-V/FITC-PI staining based flow cytometry analysis (reference value: 2.93 %); type: functional
MDA-MB-231 [2] = assay: Induction of apoptosis in human MDA-MB-231 cells assessed as necrotic cells at 0.165 uM incubated for 48 hrs by Annexin-V/FITC-PI staining based flow cytometry analysis (reference value: 0.99 %); type: functional
MDA-MB-231 [3] = assay: Inhibition of cell adhesion in human MDA-MB-231 cells assessed as reduction in cell adhesion by measuring fluorescence intensity at 82.5 to 330 nM incubated for 48 hrs by flow cytometry analysis; type: functional, cell-based; conditions: dose 82.5-330 nM
MDA-MB-231 [4] = assay: Induction of DNA damage in human MDA-MB-231 cells assessed as tail DNA at 0.165 uM incubated for 48 hrs by Comet assay (reference value: 0.007 %); type: functional
Cell membrane [5] = assay: Induction of mitochondrial membrane potential loss in human MDA-MB-231 cells assessed as proportion of MMP decreased cells at 0.165 uM and measured for 48 hrs by JC-1 staining based flow cytometry assay (reference value: 4.40%); type: subcellular; set-up: scale not given: the % may be the effect or the level left
MDA-MB-231 [6] = assay: Induction of DNA damage in human MDA-MB-231 cells assessed as tail DNA at 82.5 nM incubated for 48 hrs by Comet assay (reference value: 0.007 %); type: functional
MDA-MB-231 [7] = assay: Induction of apoptosis in human MDA-MB-231 cells assessed as necrotic cells at 0.33 uM incubated for 48 hrs by Annexin-V/FITC-PI staining based flow cytometry analysis (reference value: 0.99 %); type: functional
MDA-MB-231 [8] = assay: Induction of cell cycle arrest in human MDA-MB-231 cells assessed as accumulation of cells at S phase at 0.165 uM incubated for 48 hrs by flow cytometry analysis (reference value: 36.51%); type: functional
MDA-MB-231 [9] = assay: Inhibition of cell migration in human MDA-MB-231 cells assessed as wound healing rate at 82.5 nM measured for 24 hrs by scratch wound healing assay (Rvb= 230.22 +/- 32.21 %); type: functional; set-up: scale not given: the % may be the effect or the level left
MDA-MB-231 [10] = assay: Induction of cell cycle arrest in human MDA-MB-231 cells assessed as accumulation of cells at S phase at 82.5 nM incubated for 48 hrs by flow cytometry analysis (reference value: 36.51%); type: functional
MDA-MB-231 [11] = assay: Induction of cell cycle arrest in human MDA-MB-231 cells assessed as accumulation of cells at S phase at 0.33 uM incubated for 48 hrs by flow cytometry analysis (reference value: 36.51%); type: functional
Cell membrane [12] = assay: Induction of mitochondrial membrane potential loss in human MDA-MB-231 cells assessed as proportion of MMP decreased cells at 82.5 nM and measured for 48 hrs by JC-1 staining based flow cytometry assay (reference value: 4.40%); type: subcellular; set-up: scale not given: the % may be the effect or the level left
MDA-MB-231 [13] = assay: Induction of cell cycle arrest in human MDA-MB-231 cells assessed as accumulation of cells at G2 phase at 82.5 nM incubated for 48 hrs by flow cytometry analysis (reference value: 16.05 %); type: functional
MDA-MB-231 [14] = assay: Induction of apoptosis in human MDA-MB-231 cells assessed as late apoptotic cells at 82.5 nM incubated for 48 hrs by Annexin-V/FITC-PI staining based flow cytometry analysis (reference value: 2.34 %); type: functional
A-375 = assay: Antiproliferative activity against human A-375 cells assessed as reduction in cell viability incubated for 48 hrs by CCk-8 assay; type: functional, cell-based; conditions: A-375, 48 h
MDA-MB-231 [15] = assay: Induction of apoptosis in human MDA-MB-231 cells assessed as necrotic cells at 82.5 nM incubated for 48 hrs by Annexin-V/FITC-PI staining based flow cytometry analysis (reference value: 0.99 %); type: functional
HepG2 = assay: Antiproliferative activity against human HepG2 cells assessed as reduction in cell viability incubated for 48 hrs by CCk-8 assay; type: functional, cell-based; conditions: HepG2, 48 h
A549 = assay: Antiproliferative activity against human A549 cells assessed as reduction in cell viability incubated for 48 hrs by CCk-8 assay; type: functional, cell-based; conditions: A549, 48 h
MDA-MB-231 [16] = assay: Induction of apoptosis in human MDA-MB-231 cells assessed as early apoptotic cells at 0.165 uM incubated for 48 hrs by Annexin-V/FITC-PI staining based flow cytometry analysis (reference value: 2.93 %); type: functional
MDA-MB-231 [17] = assay: Induction of apoptosis in human MDA-MB-231 cells assessed as late apoptotic cells at 0.33 uM incubated for 48 hrs by Annexin-V/FITC-PI staining based flow cytometry analysis (reference value: 2.34 %); type: functional
MDA-MB-231 [18] = assay: Induction of cell cycle arrest in human MDA-MB-231 cells assessed as accumulation of cells at G1 phase at 0.33 uM incubated for 48 hrs by flow cytometry analysis (reference value: 47.44 %); type: functional
MDA-MB-231 [19] = assay: Inhibition of cell migration in human MDA-MB-231 cells assessed as wound healing rate at 0.33 uM measured for 24 hrs by scratch wound healing assay (Rvb= 230.22 +/- 32.21 %); type: functional; set-up: scale not given: the % may be the effect or the level left
MDA-MB-231 [20] = assay: Induction of apoptosis in human MDA-MB-231 cells assessed as viable cells at 0.33 uM incubated for 48 hrs by Annexin-V/FITC-PI staining based flow cytometry analysis (reference value: 93.74 %); type: functional; conditions: read-out: Activity
MDA-MB-231 [21] = assay: Inhibition of cell invasion in human MDA-MB-231 cells incubated for 24 hrs by crystal violet staining based transwell assay; type: functional; conditions: dose 82.5-330 nM
MDA-MB-231 [22] = assay: Induction of apoptosis in human MDA-MB-231 cells assessed as viable cells at 82.5 nM incubated for 48 hrs by Annexin-V/FITC-PI staining based flow cytometry analysis (reference value: 93.74 %); type: functional; conditions: read-out: Activity
MDA-MB-231 [23] = assay: Induction of DNA damage in human MDA-MB-231 cells assessed as tail DNA at 0.33 uM incubated for 48 hrs by Comet assay (reference value: 0.007 %); type: functional
MDA-MB-231 [24] = assay: Induction of cell cycle arrest in human MDA-MB-231 cells assessed as accumulation of cells at G2 phase at 0.33 uM incubated for 48 hrs by flow cytometry analysis (reference value: 16.05 %); type: functional
[25] = Selectivity index, ratio of IC50 for antiproliferative activity against human L02 cells to IC50 for antiproliferative activity against human MDA-MB-231 cells; type: toxicity, cell-based; conditions: L02 cells and MDA-MB-231 cells, read-out: Ratio IC50
MDA-MB-231 [26] = assay: Inhibition of cell migration in human MDA-MB-231 cells assessed as wound healing rate at 0.165 uM measured immediately by scratch wound healing assay (Rvb= 871.53 +/- 3.02 %); type: functional; set-up: scale not given: the % may be the effect or the level left
DU-145 = assay: Antiproliferative activity against human DU-145 cells assessed as reduction in cell viability incubated for 48 hrs by CCk-8 assay; type: functional, cell-based; conditions: DU-145, 48 h
MDA-MB-231 [27] = assay: Induction of apoptosis in human MDA-MB-231 cells assessed as early apoptotic cells at 82.5 nM incubated for 48 hrs by Annexin-V/FITC-PI staining based flow cytometry analysis (reference value: 2.93 %); type: functional
MDA-MB-231 [28] = assay: Antiproliferative activity against human MDA-MB-231 cells assessed as reduction in cell viability incubated for 48 hrs by CCk-8 assay; type: functional, cell-based; conditions: MDA-MB-231, 48 h

Activity (Cell membrane [5]): 31.7%
Activity (Cell membrane [12]): 16.3%
pIC50 (A-375): 5.74
pIC50 (HepG2): 6.12
pIC50 (A549): 6.24
pIC50 (DU-145): 6.16
pIC50 (MDA-MB-231 [28]): 6.48
Structure (SMILES): C[C@H]1CCC/C=C/[C@@H]2C[C@H](O)C[C@H]2[C@H](OC(=O)CCCC(=O)OCCOc2ccc(-c3cc(=S)ss3)cc2)/C=C/C(=O)O1
Activity (MDA-MB-231 [1]): 21.05%
Activity (MDA-MB-231 [2]): 1.87%
inhibition (MDA-MB-231 [3]): Active
Activity (MDA-MB-231 [4]): 39.11%
Activity (MDA-MB-231 [6]): 20.49%
Activity (MDA-MB-231 [7]): 4.11%
Activity (MDA-MB-231 [8]): 30.39%
Activity (MDA-MB-231 [9]): 383.42%
Activity (MDA-MB-231 [10]): 30.23%
Activity (MDA-MB-231 [11]): 22.99%
Activity (MDA-MB-231 [13]): 13.5%
Activity (MDA-MB-231 [14]): 5.82%
Activity (MDA-MB-231 [15]): 2.12%
Activity (MDA-MB-231 [16]): 10.14%
Activity (MDA-MB-231 [17]): 31.61%
Activity (MDA-MB-231 [18]): 69.88%
Activity (MDA-MB-231 [19]): 610.67%
viability at 0.33 µM (MDA-MB-231 [20]): 43.2%
inhibition (MDA-MB-231 [21]): Dose-Dependent Effect
viability at 0.0825 µM (MDA-MB-231 [22]): 82%
Activity (MDA-MB-231 [23]): 49.49%
Activity (MDA-MB-231 [24]): 7.13%
selectivity ratio [25]: 5.3
Activity (MDA-MB-231 [26]): 830.55%
Activity (MDA-MB-231 [27]): 10.01%
